Results on 50 substances are retold here after patent US9597407B2, “Targeted antimicrobial moieties” (C3 Jian, Inc., priority 2009, dated 2017).

“Also recorded” adds a separate entry of the source.

The test system of the assay is bacteria. Kind of assay: Binding of targeting peptides to microorganisms (Table 3). The note with it: peptide binding in aqueous buffers that varied depending on peptide solubility; preferably 1x PBS.
In the case of “PF-504 (ILSVELSTKTSASGS; Peptide with targeting and/or antimicrobial activity)”, the “Target(s) (microorganisms bound by the targeting peptide)” value is reported as “S. mutans; also recorded: E. coli”.
Same read-out and setting: to “PF-505 (GYTKDPGTGI; Peptide with targeting and/or antimicrobial activity)” belongs “S. mutans”; to “PF-506 (SGRGFALIVVLFILLIIVGAACIR; Peptide with targeting and/or antimicrobial activity)”, “S. mutans; also recorded: E. coli”.
The same measure, in the same setting: to “PF-507 (LALSIANLFKKKA; Peptide with targeting and/or antimicrobial activity)” belongs “S. mutans; also recorded: E. coli”; to “PF-508 (VSTFGKVVKVVDEK; Peptide with targeting and/or antimicrobial activity)”, “S. mutans”; to “PF-509 (EAKVQAKGEQIACNNY; Peptide with targeting and/or antimicrobial activity)”, “S. mutans; also recorded: B. subtilis; also recorded: E. coli”.
Same read-out and setting: in the case of “PF-510 (WYLYKKQSNQNDRGIPK; Peptide with targeting and/or antimicrobial activity)” it was “S. mutans; also recorded: E. coli”; in that of “PF-568 (TQAVQVKTAQAQQQ; Peptide with targeting and/or antimicrobial activity)”, “S. epidermidis”.
For the substance “PF-570 (KKFPTEESHIQAVLEFKKLTEHPSG; Peptide with targeting and/or antimicrobial activity)”, the “Target(s) (microorganisms bound by the targeting peptide)” value is “S. pneumoniae; also recorded: C. jeikeium”.
As for “PF-641 (SWKCHHLAIGGSWKCHHLAI; Peptide with targeting and/or antimicrobial activity)”, the “Target(s) (microorganism bound by the targeting peptide)” value was “S. epidermidis and M. luteus and E. coli and C. albicans and MRSA and E. faecalis and C. jeikeium and C. jejuni”.
Still for that read-out and setting: to “PF-648 (ARRYPAAGS; Peptide with targeting and/or antimicrobial activity)” belongs “S. mutans; also recorded: E. coli”.
Still for that read-out and setting: to “PF-650 (IRSDQPGRQSRSSPRWPTGAGRHR; Peptide with targeting and/or antimicrobial activity)” belongs “Mycobacteria spp”; to “PF-669 (RADRIESYPADGDRVITLWRNPYR; Peptide with targeting and/or antimicrobial activity)”, “Mycobacteria spp”; to “PF-671 (TVSAFRTVH; Peptide with targeting and/or antimicrobial activity)”, “S. mutans; also recorded: E. coli”.
Regarding “PF-673 (VRRLRM; Peptide with targeting and/or antimicrobial activity)”, the “Target(s) (microorganism bound by the targeting peptide)” value is on record as “S. mutans; also recorded: E. coli”.
“PF-674 (DGCDSEPALTYR; Peptide with targeting and/or antimicrobial activity)”: the “Target(s) (microorganism bound by the targeting peptide)” value is reported as “S. mutans; also recorded: E. coli”.
Same read-out and setting: in the case of “PF-676 (AEYRGL; Peptide with targeting and/or antimicrobial activity)” it was “S. mutans; also recorded: E. coli”; in that of “PF-678 (RDRRWTRRDMYDWLESARV; Peptide with targeting and/or antimicrobial activity)”, “Mycobacteria spp”; in that of “PF-679 (CRARFIRR; Peptide with targeting and/or antimicrobial activity)”, “S. mutans; also recorded: E. coli”.
The same measure, in the same setting: to “PF-689 (SAPSG; Peptide with targeting and/or antimicrobial activity)” belongs “S. mutans; also recorded: E. coli”.
Turning to “PF-701 (PRGAQSGHG; Peptide with targeting and/or antimicrobial activity)”, the “Target(s) (microorganism bound by the targeting peptide)” value is on record as “S. mutans”.
Still for that read-out and setting: in the case of “PF-703 (MTTVDNIVGLVIAVALMAFLFAALLFPEKF; Peptide with targeting and/or antimicrobial activity)” it was “Mycobacteria spp”.
With “PF-705 (GEEEGTVAD; Peptide with targeting and/or antimicrobial activity)”, the “Target(s) (microorganism bound by the targeting peptide)” value is on record as “S. mutans; also recorded: E. coli”.
Still for that read-out and setting: to “PF-706 (LGYGAWIGCGLGLNGFHRID; Peptide with targeting and/or antimicrobial activity)” belongs “L. pneumophila”; to “PF-707 (IDPESIVTTNNKQDNVDEQ; Peptide with targeting and/or antimicrobial activity)”, “S. mutans; also recorded: E. coli”; to “PF-709 (NKKHSPMD; Peptide with targeting and/or antimicrobial activity)”, “S. mutans”.
On the same count and under the same terms, in the case of “PF-711 (KTAGPTGTIYKTN; Peptide with targeting and/or antimicrobial activity)” it was “S. mutans”; in that of “PF-712 (QIYRHVHKVQAKSANLRLY; Peptide with targeting and/or antimicrobial activity)”, “S. mutans; also recorded: E. coli”; in that of “PF-714 (FVVTQRMLRMYKK; Peptide with targeting and/or antimicrobial activity)”, “L. pneumophila”.
Still for that read-out and setting: to “PF-716 (HGENHHHKSDEKDNDSSEKKD; Peptide with targeting and/or antimicrobial activity)” belongs “S. mutans”; to “PF-717 (PQSEVTFENIYAPKANGGGLYGI; Peptide with targeting and/or antimicrobial activity)”, “E. coli”.
As for “PF-720 (SLDMGK; Peptide with targeting and/or antimicrobial activity)”, the “Target(s) (microorganism bound by the targeting peptide)” value is reported as “S. mutans”.
On the same count and under the same terms, in the case of “PF-724 (CYRFLTPKRPTRIS; Peptide with targeting and/or antimicrobial activity)” it was “L. pneumophila”; in that of “PF-727 (AYARCRHDYPFTLGQMQTH; Peptide with targeting and/or antimicrobial activity)”, “S. mutans; also recorded: E. coli”.
Still for that read-out and setting: to “PF-728 (AIGQEQDRREYYYYSGYPYYY; Peptide with targeting and/or antimicrobial activity)” belongs “S. mutans; also recorded: E. coli”; to “PF-731 (RHKLIRLPLSESVFCFLNNPKI; Peptide with targeting and/or antimicrobial activity)”, “L. pneumophila”; to “PF-732 (DRPSQTTHHTLSSSRITGPS; Peptide with targeting and/or antimicrobial activity)”, “E. coli”.
The same measure, in the same setting: to “PF-733 (VISRQMGSEAVLELFIIM; Peptide with targeting and/or antimicrobial activity)” belongs “S. mutans; also recorded: E. coli”; to “PF-735 (YDPLFPNDKN; Peptide with targeting and/or antimicrobial activity)”, “S. mutans; also recorded: E. coli”; to “PF-750 (AESSPAKTTA; Peptide with targeting and/or antimicrobial activity)”, “M. luteus; also recorded: C. jeikeium”.
Consider “PF-751 (AESSPAQETT; Peptide with targeting and/or antimicrobial activity)”, for which the “Target(s) (microorganism bound by the targeting peptide)” value is “S. epidermidis; also recorded: E. coli; also recorded: C. albicans; also recorded: C. jeikeium”.
Same read-out and setting: to “PF-765 (YLYWEVEHKPIIAKRDAYYAQLRKQKEIEEGA; Peptide with targeting and/or antimicrobial activity)” belongs “S. epidermidis and M. luteus and E. coli and MRSA and E. faecalis and C. jeikeium”; to “PF-766 (DAYYAQLRKQKEIEEGA; Peptide with targeting and/or antimicrobial activity)”, “S. epidermidis and M. luteus and C. albicans and MRSA and E. faecalis and C. jeikeium”; to “PF-767 (DGKQGEPVALKPTDN; Peptide with targeting and/or antimicrobial activity)”, “S. epidermidis and M. luteus and E. coli and MRSA and S. pneumoniae and E. faecalis and C. jeikeium”.
On the same count and under the same terms, in the case of “PF-768 (GFRGGKRGGARG; Peptide with targeting and/or antimicrobial activity)” it was “S. epidermidis; also recorded: S. pneumoniae; also recorded: E. faecalis; also recorded: C. jeikeium”; in that of “PF-772 (TKESSS; Peptide with targeting and/or antimicrobial activity)”, “S. epidermidis and C. albicans and MRSA and S. pneumoniae and C. jeikeium”.
Consider “PF-773 (TLKESK; Peptide with targeting and/or antimicrobial activity)”, for which the “Target(s) (microorganism bound by the targeting peptide)” value was “S. epidermidis; also recorded: C. albicans; also recorded: C. jeikeium”.
The same measure, in the same setting: to “PF-777 (PGADGKLAEASAAIARLVRS; Peptide with targeting and/or antimicrobial activity)” belongs “Mycobacteria spp”; to “PF-778 (MNLILTAHGT; Peptide with targeting and/or antimicrobial activity)”, “Mycobacteria spp”; to “PF-779 (IYGDFFNFYLCDISLKVNGLQPGGPVRTVKLFGQPTGRCTPQ; Peptide with targeting and/or antimicrobial activity)”, “Mycobacteria spp”.
